2 compounds from patent US5958947A, “DNA-affinic hypoxia selective cytotoxins” (priority 1996, dated 1999) can be followed below.

Entries after “also recorded” stand apart in the source; their conditions may differ. Where a name gives a salt, the structure may show the parent alone. Read-outs that look alike come from different tables or passages of the source. Where only a bound is given, the exact number is not on record here.

A short description of data set [1]: Acute aerobic and hypoxic cytotoxicity (colony formation). It counts as cell-based, Chinese hamster. Conditions: chinese hamster, aerobic v79 cells, aerobic, 1 hour, 37° C.; for IC50 at 1 h: V79 cells, 50% inhibition of clonogenicity. On the procedure:
(§1) Samples of V79 Chinese hamster lung cells used in the following experiments were prepared as follows. V79 cells, exponentially growing as monolayer cultures in RPMI 1640 medium (Mediatech) supplemented with 10% fetal calf serum, were trypsinized, centrifuged for 5 min, harvested, then suspended in 25 ml Erlenmeyer flasks fitted with rubber caps at 5×10^5 cells/ml (5 ml). Individual flasks either were shaken (100 rpm) at 37° C. under aerobic conditions or made hypoxic by gassing with a 95% N2 (nitrogen)/5% CO2 (carbon dioxide) humidified gas mixture for 1 hour.
(§2) To determine the fraction of surviving cells, samples were removed, diluted and plated to provide 2×10^2 to 2×10^4 cells/well on 60 mm Linbro multi-well plates (Flow Laboratories, McLean, Virginia). The plates were incubated at 37° C. for 6 days, stained with crystal violet and examined for colony formation. Colonies of 50 cells or greater were counted. Each plotted point in FIGS. 1 and 2 represent the mean of three or four replicate experiments.

Data set [2] deals with V79 Chinese hamster lung cells. The data set is described as above. In kind it is cell-based. Conditions: for IC50: V79, 1 h, hypoxia, 50% inhibition of clonogenicity; for viability at 100 µM: 3.5 hours. On the procedure:
as §1, §2

For data set [3], the system named is V79 Chinese hamster lung cells. The data set is described as follows: Radiosensitization of V79 cells. In kind it is cell-based. Conditions: for maximum SER value: hypoxic V79 cells, 100 μM for THNLA-1, non-toxic concentrations for others. As for the experimental part: as §1
Radiosensitization studies were performed on V79 cells in a manner similar to the acute toxicity experiments, except that the survival fraction was determined after a predetermined radiation dose. […] One Gy is equal to 100 rads, wherein one rad is the quantity of ionizing radiation that results in the absorption of 100 ergs of energy per gram of irradiated material. Hypoxia was maintained throughout irradiation. […] Sensitization enhancement ratios (SER) were determined at a 10% survival level. […] The plotted points in FIGS. 3 and 4 represent the mean of 2 or 3 replicate experiments.

The next data set concerns human Topo II. The data set is described as follows: Topoisomerase II interaction (decatenation of kinetoplast DNA). In kind it is biochemical. Conditions: up to 1 mM. On the procedure:
A Topo II assay kit (TopoGEN, Inc., Columbus, Ohio) also was used to assay the topoisomerase II--THNLA-1 interaction. […] Individual reaction mixtures were heated for 30 minutes at 37° C. on a heating block, and then 2 μl of a 10% SDS-proteinase K solution was added to each reaction mixture. The resulting reaction mixtures then were heated for an additional 30 minutes at 37° C. After addition of a 0.1 volume of loading buffer, the reaction mixtures were extracted with CHCl3 prior to submarine electrophoresis on a 1% agarose gel containing ethidium bromide (0.5 μg/ml).

In a further data set the test system is calf thymus Topo I. Briefly: Topoisomerase I interaction (relaxation of supercoiled DNA). In kind it is biochemical. Conditions: 800 μM, compound alone.
Data set [4] concerns V79 cells. The data set is described as follows: Drug uptake: intracellular and extracellular concentrations in V79 cells. It counts as cell-based, Chinese hamster. As for the experimental part:
Also, uptake measurements at various times under both aerobic and hypoxic conditions were made. Afterwards, the samples were pelleted by centrifuging for 6 minutes at 0° C. A small volume of the supernatant (200 μl) was combined with 9 equal volumes (1.8 ml) of acetonitrile and the remaining supernatant was discarded. The samples were centrifuged again to remove residual supernatant and the pellets were lysed with 90 μl water and deproteinized with 0.9 ml acetonitrile. After centrifugation and filtration, all samples were stored at -70° C. until a UV spectroscopic analysis was made at two different wave lengths: 330 nm (nanometers) (absorption of the nitro-group) and 244 nm (λmax). […] Mean intracellular concentration of drug was calculated using a value of 810 fl as an intracellular water content of log-phase cells.
Concentrations were determined by UV spectrophotometry at 330 nm. The plotted points represent results from two experiments, in triplicate.

Data set [5] can be described thus: Toxicity study in balb mice. In kind it is in vivo.
Another data set deals with EMT6 tumors. The data set is described as follows: In vivo radiosensitization of EMT6 tumors. Details: species or system balb mice. Conditions: 0.103 mmol/g intraperitoneally, 20 Gy.
The subject of data set [6] is V79 cells. Briefly: Drug uptake in the presence of ammonium chloride. It counts as cell-based, Chinese hamster. The settings on record: aerobic V79 cells, 60 μM input, 50 mM NH4Cl (stated for THNLA-1). On the procedure: Uptake measurements in the presence of the lysosomotropic agent ammonium chloride (NH4 Cl) also were performed in a manner as previously described.
Concentrations were determined by UV spectrophotometry at 330 nm. The plotted points represent the mean of two experiments.

A further data set has as its system OVCAR cells. Briefly: Chemosensitization of OVCAR cells to L-PAM and cis-DDP. It counts as cell-based. Conditions: OVCAR cells resistant to L-PAM and cis-DDP. The text has this:
A longer hypoxic preexposure time and a lower sensitizer dose are preferred over a shorter hypoxic preexposure time and a higher sensitizer dose. […] OVCAR cells are resistant to L-PAM and cis-DDP.

Setting [7] is: Cricetulus griseus, V79 cells, 1 hour, 37° C.

One may read the IC50 as the concentration at which inhibition is half-maximal. Read a low IC50 as greater potency in that assay. With `O=[N+]([O-])c1nccn1CCCNc1c2c(nc3ccccc13)CCSC2` [S-THNLA-1, 10-[3-(2-nitroimidazolyl)propylamino]-3,4-dihydro-1-H-thiopyrano[4,3-b]quinoline hydrochloride], the IC50 at 1 h in [1] stood at 580 µM. For the same compound, in [2] (setting [7]), the IC50 came out at 68 µM. In data set [2] (V79 cells, 1 hour, 37° C.), the “Hypoxic selectivity (differential aerobic/hypoxic toxicity): IC50/A,1h /IC50/H,1h” value is “about 9”. Besides, the EC (SER 1.6) is 40 to 45 µM in data set [3] (Cricetulus griseus, V79, 1 h, read-out: Hypoxic radiosensitizing potency: C1.6, concentration yielding an SER of 1.6, hypoxic V79 cells); 932 µM in data set [3] (Cricetulus griseus, V79, read-out: Intracellular concentration at C1.6: C1.6i, hypoxic radiosensitization, V79 cells (tables)); 40 µM in data set [3] (concentration yielding an SER of 1.6, hypoxic V79 cells, hydrochloride, read-out: Hypoxic radiosensitizing potency: C1.6). The “maximum SER value” in data set [3] is “equal to OER”. Moreover, in [3] (in vitro ThI), the “therapeutic index relative to NLA-1” value was “better therapeutic index than NLA-1”. For the same compound, the “Therapeutic index (ThI): IC50/A,1h /C1.6” value in data set [3] (in vitro, V79 cells) is reported as “about 15”. Besides, the “inhibition of Topo II-induced decatenation of kinetoplast DNA” value with human Topo II was “did not inhibit the action of Topoisomerase II on kinetoplast DNA”. Further, the “formation of nicked DNA by compound alone” value in the data set with calf thymus Topo I is “caused the formation of some nicked DNA”.

Turning to `Cl.O=[N+]([O-])c1nccn1CCCNc1c2c(nc3ccccc13)CCCC2` [THNLA-1, 9-[3-(2-nitro-1-imidazolyl)propylamino]-1,2,3,4-tetrahydroacridine hydrochloride], the IC50 at 1 h in data set [1] is roughly 360 µM. Moreover, in data set [1] (read-out: concentration to achieve a 10% survival fraction, aerobic), the IC90 at 1 h was roughly 475 µM. This compound also came in with an IC50 in data set [2] (setting [7]) of roughly 33 µM. The IC90 in [2] (Cricetulus griseus, V79, hypoxic, 1 hour, 37° C., read-out: concentration to achieve a 10% survival fraction, hypoxic) is roughly 100 µM. Also, the viability at 100 µM in data set [2] (V79, aerobic, read-out: survival fraction, aerobic) is roughly 50%; in data set [2] (V79, hypoxic, read-out: survival fraction, hypoxic), less than 0.002%. Also, in data set [3] (1 hour at 37° C. before irradiation, hypoxic), the “radiosensitization of hypoxic V79 cells” value is “Significant radiosensitization”. The EC (SER 1.6) in data set [3] (Cricetulus griseus, 1 h, concentration yielding an SER of 1.6, hypoxic V79 cells, read-out: Hypoxic radiosensitizing potency: C1.6) was 19 µM; in data set [3] (Cricetulus griseus, hypoxic radiosensitization, V79 cells (tables), read-out: Intracellular concentration at C1.6: C1.6i) it was 443 µM; in data set [3] (Cricetulus griseus, hypoxic radiosensitization, V79 cells, read-out: Intracellular concentration for an SER of 1.6: C1.6i) it was 443 µM. Also, the “radiosensitization when administered immediately after irradiation” value in data set [3] (V79 cells (hypoxic conditions), hydrochloride) is given as “radiosensitization also was not observed; also recorded: No radiosensitization was observed”. Moreover, the “radiosensitization under aerobic conditions” value in data set [3] (V79 cells, aerobic) is reported as “Radiosensitization was not observed”. In addition, the “radioprotection under aerobic conditions” value in data set [3] (aerobic) is reported as “no radioprotection occurred”. Also, the “maximum SER value” in data set [3] turned out to be 3.1. The “inhibition of Topo II-induced decatenation of kinetoplast DNA” value in the data set on human Topo II (hydrochloride) is “does not inhibit the Topo II-induced decatenation of KDNA even at very high concentrations; also recorded: did not inhibit decatenation of kinetoplast DNA”. In the data set on V79 cells [4] (20 μM, aerobic V79 cells, 37° C.), the “Ci over 15, 30 and 60 minutes, aerobic” value is given as “basically unchanged”. The “Ci over time, hypoxic” value with V79 cells [4] (20 μM, hypoxic V79 cells, 37° C.) is “a decrease of Ci over time”. Also, the “Ci compared with Ce” value in the data set with V79 cells [4] (V79 cells, 37° C., input 0 to 500 μM or 20 μM) is on record as “substantially greater”. The “aerobic mean uptake factor (Ci/Ce) compared to NLA-1” value in the data set with V79 cells [4] (aerobic V79 cells) was “did not result in an increase of the aerobic mean uptake factor”. The “input concentration at which the uptake factor (Ci/Ce) reaches a maximum” value in the data set with V79 cells [4] (aerobic, 30 minutes, 37° C.) is “about 100 μM”. The nontoxic concentration result in data set [5] was “at least 0.129 mmol/g”. Moreover, the “administration time before irradiation for maximum radiosensitization” value in the data set on EMT6 tumors is reported as “at least one hour before irradiation”. Besides, in the data set with EMT6 tumors (EMT6 tumors in balb mice, hydrochloride), the “radiosensitizing effect in vivo” value is recorded as “synergistic effect; also recorded: potent radiosensitizing effect; also recorded: enhanced the effects of 20 Gy radiation in EMT6 tumors to a similar degree as 2 mmol/g of etanidazole”. Besides, in the data set with V79 cells [6], the “factor of decrease of Ci in the presence of NH4Cl” value is given as “about 3”. Besides, the “chemosensitization to L-PAM and cis-DDP” value in the data set with OVCAR cells is on record as “effectively chemosensitizes OVCAR cells”.
